Measured values: ChEMBL document CHEMBL5584224, “Recent advances in c-Met-based dual inhibitors in the treatment of cancers” (Eur J Med Chem, 2024)
pIC50: −log10 of the molar value. Each block holds one molecule with its values, some of them ahead of it.

Legend:
HCC827 = assay: Antiproliferative activity against human HCC827 cells; assay type: functional, cell-based
[1] = molecular target: T1, Tyrosine-protein kinase receptor UFO (Homo sapiens, UniProt P30530); assay: Inhibition of AXL (unknown origin)
T1 sequence (P30530 whole entry): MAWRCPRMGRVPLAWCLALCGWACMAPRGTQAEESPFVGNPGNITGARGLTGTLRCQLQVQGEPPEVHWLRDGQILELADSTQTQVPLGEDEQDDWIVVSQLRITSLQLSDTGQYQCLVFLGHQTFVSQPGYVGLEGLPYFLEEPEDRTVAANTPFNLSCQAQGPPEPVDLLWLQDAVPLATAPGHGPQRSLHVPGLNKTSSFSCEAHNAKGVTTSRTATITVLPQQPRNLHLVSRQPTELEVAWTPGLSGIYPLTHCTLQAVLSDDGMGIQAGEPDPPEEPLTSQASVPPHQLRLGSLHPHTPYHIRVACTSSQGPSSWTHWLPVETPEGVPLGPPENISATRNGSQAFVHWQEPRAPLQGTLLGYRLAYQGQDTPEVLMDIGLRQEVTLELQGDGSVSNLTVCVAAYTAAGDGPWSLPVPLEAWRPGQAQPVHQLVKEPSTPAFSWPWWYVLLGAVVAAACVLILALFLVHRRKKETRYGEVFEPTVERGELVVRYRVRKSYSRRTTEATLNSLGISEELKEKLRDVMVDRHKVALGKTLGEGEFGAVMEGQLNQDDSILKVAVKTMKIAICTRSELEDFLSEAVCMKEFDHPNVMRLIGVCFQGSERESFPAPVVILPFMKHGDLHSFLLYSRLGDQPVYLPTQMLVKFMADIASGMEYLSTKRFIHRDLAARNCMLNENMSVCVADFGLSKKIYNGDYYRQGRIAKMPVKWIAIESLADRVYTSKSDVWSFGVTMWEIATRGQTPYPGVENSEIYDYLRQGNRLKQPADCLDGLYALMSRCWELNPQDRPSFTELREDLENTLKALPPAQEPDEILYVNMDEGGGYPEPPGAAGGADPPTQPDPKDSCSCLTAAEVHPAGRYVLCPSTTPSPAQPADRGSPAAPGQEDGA

[2] = molecular target: T2, Hepatocyte growth factor receptor (Homo sapiens, UniProt P08581)
Description: Inhibition of c-MET (unknown origin)

NCI-H1975 = assay: Antiproliferative activity against human NCI-H1975 cells assessed as reduction in cell viability incubated for 48 hrs by MTT assay; assay type: functional, cell-based; details: NCI-H1975, 48 h
[3] = molecular target: T3, ALK tyrosine kinase receptor (Homo sapiens, UniProt Q9UM73); assay: Inhibition of ALK (unknown origin)
A-431 = assay: Antiproliferative activity against human A-431 cells assessed as reduction in cell viability incubated for 24 hrs by MTT assay; assay type: functional, cell-based; details: A-431, 24 h
Histone deacetylase 1 = Histone deacetylase 1 (Homo sapiens, UniProt Q13547); assay: Inhibition of HDAC1 (unknown origin) expressed in Sf9 cells using Z-Lys(Ac)-AMC as fluorogenic substrate preincubated for 60 mins followed by substrate addition and measured after 1 hr by fluorescence based microplate analysis
[4] = molecular target: T2, Hepatocyte growth factor receptor; assay: Inhibition of c-Met (unknown origin) by mobility shift assay
NCI-H322M = assay: Antiproliferative activity against human NCI-H322M cells assessed as cell growth inhibition incubated for 72 hrs by MTT assay; assay type: functional, cell-based
A549 = assay: Antiproliferative activity against human A549 cells assessed as reduction in cell viability incubated for 24 hrs by MTT assay; assay type: functional, cell-based; details: A549, 24 h
KB 3-1 = assay: Antiproliferative activity against human KB-3-1 cells assessed as cell growth inhibition; assay type: functional, cell-based
4T1 = assay: Antiproliferative activity against mouse 4T1 cells assessed as reduction in cell viability by MTT assay; assay type: functional, cell-based
BT-549 = assay: Antiproliferative activity against human BT-549 cells assessed as reduction in cell viability by MTT assay; assay type: functional, cell-based
MDA-MB-231 = assay: Antiproliferative activity against human MDA-MB-231 cells assessed as reduction in cell viability by MTT assay; assay type: functional, cell-based
[5] = molecular target: T3, ALK tyrosine kinase receptor
Description: Inhibition of ALK (unknown origin) by TR-FRET assay

T3 sequence (Q9UM73 whole entry): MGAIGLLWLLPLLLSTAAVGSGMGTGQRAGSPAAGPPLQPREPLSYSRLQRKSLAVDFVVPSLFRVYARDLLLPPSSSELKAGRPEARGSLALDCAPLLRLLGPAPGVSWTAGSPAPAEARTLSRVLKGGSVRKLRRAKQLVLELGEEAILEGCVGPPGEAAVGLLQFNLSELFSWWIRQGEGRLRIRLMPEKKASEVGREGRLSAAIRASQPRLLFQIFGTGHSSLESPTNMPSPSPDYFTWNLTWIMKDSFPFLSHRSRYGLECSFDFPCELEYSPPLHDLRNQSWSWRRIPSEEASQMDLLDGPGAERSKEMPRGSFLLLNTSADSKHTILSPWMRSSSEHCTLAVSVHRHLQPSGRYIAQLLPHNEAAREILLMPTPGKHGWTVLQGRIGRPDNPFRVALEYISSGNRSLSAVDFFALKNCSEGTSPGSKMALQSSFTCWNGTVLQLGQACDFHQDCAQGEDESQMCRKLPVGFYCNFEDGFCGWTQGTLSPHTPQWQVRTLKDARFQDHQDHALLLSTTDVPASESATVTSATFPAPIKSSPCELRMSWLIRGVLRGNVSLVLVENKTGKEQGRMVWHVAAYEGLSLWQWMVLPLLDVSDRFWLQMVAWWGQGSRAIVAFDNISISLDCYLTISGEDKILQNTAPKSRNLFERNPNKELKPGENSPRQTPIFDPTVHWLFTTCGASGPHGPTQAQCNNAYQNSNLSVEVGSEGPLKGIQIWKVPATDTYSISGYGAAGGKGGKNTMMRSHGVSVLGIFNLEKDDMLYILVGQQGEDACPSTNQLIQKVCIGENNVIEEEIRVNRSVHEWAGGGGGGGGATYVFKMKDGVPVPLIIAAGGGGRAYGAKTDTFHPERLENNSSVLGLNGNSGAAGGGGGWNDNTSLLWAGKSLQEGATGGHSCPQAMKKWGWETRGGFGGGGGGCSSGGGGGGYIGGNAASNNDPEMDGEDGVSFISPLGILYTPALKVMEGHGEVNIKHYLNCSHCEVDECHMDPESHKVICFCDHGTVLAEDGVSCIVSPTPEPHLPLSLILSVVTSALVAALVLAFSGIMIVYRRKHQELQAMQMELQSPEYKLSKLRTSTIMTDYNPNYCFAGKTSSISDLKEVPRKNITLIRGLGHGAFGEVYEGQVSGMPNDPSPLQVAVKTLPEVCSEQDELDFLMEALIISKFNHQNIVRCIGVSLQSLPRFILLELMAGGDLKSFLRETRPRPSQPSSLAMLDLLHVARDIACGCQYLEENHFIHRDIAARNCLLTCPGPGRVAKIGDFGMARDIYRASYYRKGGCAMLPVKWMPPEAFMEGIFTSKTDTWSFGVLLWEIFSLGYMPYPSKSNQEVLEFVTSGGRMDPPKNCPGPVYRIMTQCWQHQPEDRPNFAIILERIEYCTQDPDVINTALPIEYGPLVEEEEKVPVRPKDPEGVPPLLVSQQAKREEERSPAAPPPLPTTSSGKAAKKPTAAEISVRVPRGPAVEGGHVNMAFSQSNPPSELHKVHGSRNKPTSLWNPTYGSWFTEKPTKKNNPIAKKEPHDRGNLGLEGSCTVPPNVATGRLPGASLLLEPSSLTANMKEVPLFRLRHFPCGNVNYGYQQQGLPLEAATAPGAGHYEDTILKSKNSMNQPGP
T2 sequence (P08581 whole entry): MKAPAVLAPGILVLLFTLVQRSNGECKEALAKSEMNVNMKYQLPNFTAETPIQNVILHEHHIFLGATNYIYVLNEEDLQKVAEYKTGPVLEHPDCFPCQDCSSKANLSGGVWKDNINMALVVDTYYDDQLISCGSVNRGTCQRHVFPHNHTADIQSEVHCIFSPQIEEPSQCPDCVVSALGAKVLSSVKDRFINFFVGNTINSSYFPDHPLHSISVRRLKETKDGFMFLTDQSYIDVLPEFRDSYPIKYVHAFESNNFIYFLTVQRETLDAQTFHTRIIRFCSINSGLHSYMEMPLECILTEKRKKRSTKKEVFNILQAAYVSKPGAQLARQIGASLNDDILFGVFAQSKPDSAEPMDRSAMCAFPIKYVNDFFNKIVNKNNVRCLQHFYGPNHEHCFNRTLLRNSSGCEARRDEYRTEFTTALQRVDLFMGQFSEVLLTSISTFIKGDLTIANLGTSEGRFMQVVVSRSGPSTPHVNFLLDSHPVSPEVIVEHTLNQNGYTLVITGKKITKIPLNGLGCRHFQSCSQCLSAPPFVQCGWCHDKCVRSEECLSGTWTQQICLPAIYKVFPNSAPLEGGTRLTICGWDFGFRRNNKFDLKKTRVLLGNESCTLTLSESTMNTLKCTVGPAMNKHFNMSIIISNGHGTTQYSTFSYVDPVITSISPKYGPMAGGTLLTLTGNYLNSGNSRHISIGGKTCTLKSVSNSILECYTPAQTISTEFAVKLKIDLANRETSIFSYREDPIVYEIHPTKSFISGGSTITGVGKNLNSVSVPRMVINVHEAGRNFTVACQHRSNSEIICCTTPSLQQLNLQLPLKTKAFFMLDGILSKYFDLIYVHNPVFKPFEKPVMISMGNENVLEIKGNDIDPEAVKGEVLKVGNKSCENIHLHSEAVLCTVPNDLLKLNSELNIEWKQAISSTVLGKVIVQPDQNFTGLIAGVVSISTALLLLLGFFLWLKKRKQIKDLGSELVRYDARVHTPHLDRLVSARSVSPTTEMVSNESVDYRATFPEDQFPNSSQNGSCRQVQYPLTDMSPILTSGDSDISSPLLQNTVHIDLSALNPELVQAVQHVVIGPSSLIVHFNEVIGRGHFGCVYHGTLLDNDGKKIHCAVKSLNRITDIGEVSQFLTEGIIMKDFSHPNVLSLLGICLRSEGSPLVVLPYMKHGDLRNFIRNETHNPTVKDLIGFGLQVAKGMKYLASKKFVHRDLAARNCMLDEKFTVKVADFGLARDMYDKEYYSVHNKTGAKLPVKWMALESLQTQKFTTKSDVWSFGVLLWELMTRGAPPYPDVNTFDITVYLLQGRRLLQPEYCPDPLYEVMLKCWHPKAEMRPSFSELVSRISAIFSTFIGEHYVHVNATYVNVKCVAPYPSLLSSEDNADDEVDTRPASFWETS
Chain of Histone deacetylase 1 (Q13547 whole entry): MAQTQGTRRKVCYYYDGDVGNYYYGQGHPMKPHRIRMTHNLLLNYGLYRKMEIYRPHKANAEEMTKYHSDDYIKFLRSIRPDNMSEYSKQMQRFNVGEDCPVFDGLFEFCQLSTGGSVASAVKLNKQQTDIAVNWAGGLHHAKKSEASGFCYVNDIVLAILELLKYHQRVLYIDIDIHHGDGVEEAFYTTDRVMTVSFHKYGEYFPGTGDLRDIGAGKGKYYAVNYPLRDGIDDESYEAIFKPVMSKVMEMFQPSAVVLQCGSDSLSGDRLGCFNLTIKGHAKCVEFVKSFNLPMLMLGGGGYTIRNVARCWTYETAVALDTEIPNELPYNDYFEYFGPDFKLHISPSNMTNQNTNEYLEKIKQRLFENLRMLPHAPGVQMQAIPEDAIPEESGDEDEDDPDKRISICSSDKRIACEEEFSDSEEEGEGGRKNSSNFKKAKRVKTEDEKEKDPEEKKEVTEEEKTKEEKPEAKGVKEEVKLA

Compound: CC(C)n1cc(C(=O)Nc2ccc(Oc3ccnc4c3Oc3ccccc3N4)c(F)c2)c(=O)c(-c2ccc(F)cc2)c1
pIC50 [1]: 8.15

Compound: Nc1nccc(Oc2ccc(NC(=O)c3ccnn(-c4ccc(F)cc4)c3=O)cc2F)c1C#CCC1CCNCC1
pIC50 (HCC827): > 7.00
pIC50 [2]: 8.00

Compound: CN1CCc2ccc(COCC3Cc4cn5ncnc(-c6cnn(C7CCNCC7)c6)c5c4C3)cc21 (configuration not stated)
pIC50 (NCI-H1975): 7.07
pIC50 [3]: 7.69
pIC50 (A-431): 6.13

Compound: Cc1nc(Cn2cc(C(=O)Nc3ccc(Oc4ccnc(N)c4C#CCC4CCN(C)CC4)c(F)c3)c(=O)n(-c3ccc(F)cc3)c2=O)cs1
pIC50 (HCC827): > 7.00

Compound: Nc1ccccc1NC(=O)c1ccc(OCCCOc2ccc3c(OCCn4nc(-c5cn[nH]c5)ccc4=O)ccnc3c2)cn1
pIC50 (Histone deacetylase 1): 7.42
pIC50 [4]: 9.15

Compound: COCCN1CCN(C(=O)C#Cc2c(Oc3ccc(NC(=O)c4ccnn(-c5ccc(F)cc5)c4=O)cc3F)ccnc2N)CC1
pIC50 (HCC827): > 7.00

Compound: COc1cc2nccc(Oc3ccc(Nc4nccc5ccn(-c6ccc(Br)cc6)c(=O)c45)cc3F)c2cc1OC
pIC50 [1]: < 6.00

Compound: c1ccc2oc(COCC3Cc4cn5ncnc(-c6cnn(C7CCNCC7)c6)c5c4C3)cc2c1 (configuration not stated)
pIC50 (NCI-H1975): 7.22
pIC50 (A-431): < 6.00

Compound: N#CC1=C(N)OC2=C(c3sc(N)c(C#N)c3CC2)C1c1ccccc1 (configuration not stated)
pIC50 [2]: 8.08

Compound: C/C=C(/C=O)[C@@H](CC=O)CC(=O)OCCc1ccc(O)cc1 [(-)-OLEOCANTHAL]
pIC50 (NCI-H322M): 4.58
pIC50 (A549): 5.00

Compound: COc1cc2c(c(OC)c1OC)-c1ccc(OC)c(=O)cc1[C@@H](NC(C)=O)CC2 [COLCHICINE]
pIC50 (KB 3-1): 5.72

Compound: COc1cccc2c1C(=O)c1c(O)c3c(c(O)c1C2=O)C[C@@](O)(C(=O)CO)C[C@@H]3O[C@H]1C[C@H](N)[C@H](O)[C@H](C)O1 [DOXORUBICIN]
pIC50 (KB 3-1): 8.22

Compound: COCCNCc1ccc(-c2cc3nccc(Oc4ccc(NC(=S)NC(=O)Cc5ccc(F)cc5)cc4F)c3s2)nc1 [GLESATINIB]
pIC50 (KB 3-1): 8.40

Compound: Cc1c(C(=O)Nc2ccc(Oc3ccnc4cc(OCC(C)(C)O)ccc34)c(F)c2)c(=O)n(-c2ccccc2)n1C [NINGETINIB]
pIC50 [2]: 7.48

Compound: CC(=O)O[C@H]1C(=O)[C@@]2(C)[C@H]([C@H](OC(=O)c3ccccc3)[C@]3(O)C[C@H](OC(=O)[C@H](O)[C@@H](NC(=O)c4ccccc4)c4ccccc4)C(C)=C1C3(C)C)[C@]1(OC(C)=O)CO[C@@H]1C[C@@H]2O [PACLITAXEL]
pIC50 (KB 3-1): 7.54

Further lines, results first:

pIC50 (HCC827): > 7.00
Compound: COCCN1CCN(C(=O)C#Cc2c(Oc3ccc(NC(=O)c4cn(C(C)C)c(=O)n(-c5ccc(F)cc5)c4=O)cc3F)ccnc2N)CC1

pIC50 (HCC827): > 7.00
Compound: CC(C)n1cc(C(=O)Nc2ccc(Oc3ccnc(N)c3C#CC(=O)N3CCNCC3)c(F)c2)c(=O)n(-c2ccc(F)cc2)c1=O

pIC50 [1]: 7.76
Compound: COc1cc2nccc(Oc3ccc(Nc4nccc5ccn(-c6ccc(C)cc6)c(=O)c45)cc3F)c2cc1OC

pIC50 (NCI-H1975): 8.21
pIC50 [3]: 9.62
pIC50 (A-431): 7.00
Compound: Fc1ccc(Cl)c(COCC2Cc3cn4ncnc(-c5cnn(C6CCNCC6)c5)c4c3C2)c1Cl (configuration not stated)

pIC50 (HCC827): > 7.00
Compound: COCCN1CCN(C(C)(C)C#Cc2c(Oc3ccc(NC(=O)c4cn(C(C)C)c(=O)n(-c5ccc(F)cc5)c4=O)cc3F)ccnc2N)CC1

pIC50 (4T1): 5.11
pIC50 (BT-549): 4.61
pIC50 (MDA-MB-231): 4.62
Compound: COc1cc2nc(N3CCN(C(=O)C4COc5ccccc5O4)CC3)nc(N)c2cc1OC (configuration not stated) [DOXAZOSIN]

pIC50 [5]: 7.84
Compound: COc1cc(N2CCNC[C@@H]2C)ncc1-c1cnc(N)c(O[C@H](C)c2c(Cl)ccc(F)c2Cl)c1 [ENVONALKIB]
